Legend:
[1] = system: pig tracheal smooth muscles; assay: Dilating action on contraction of tracheal smooth muscles (high K+ contraction, Magnus tube); conditions: Sus scrofa, 2 h; K+ contraction (72.7 mM); test substance final concentration 10 μM; two hours after addition; tension before addition = 100%; read-out: Relative Contraction Force (%)
Text: With the use of pig tracheal muscles, the action of the compounds of the present invention on contraction of tracheal muscles has been investigated. The method refers to “Smooth Muscle Manual” (published by Bun'eido Publishing Co.), pp. 125-137. The trachea cartilage mucous membrane and submucous tissue of a pig trachea were removed to prepare a specimen of tracheal smooth muscles having a major diameter of about 10 mm and a minor diameter of about 1.5 mm. This specimen was suspended in a Magnus tube which was aerated with a mixed gas of 95% of oxygen and 5% of carbon dioxide and contained nutrient solution at 37° C. and a load of 0.8 g was applied to this specimen, and after the tension of the specimen was stabilized, the nutrient solution was replaced with a high concentration K^+ solution (72.7 mM) to provoke K^+ contraction. The procedure of replacing the solution in the Magnus tube with the nutrient solution to wash the solution and provoking K^+ contraction with the high concentration K^+ solution was repeated again until the contraction force became constant. When the tension of the K^+ contraction became constant, each of the compounds described in Table 19 (the structural formula of the Comparative Example being described in the right side of the compound of the above described Example 180) was added to the high concentration K^+ solution as the test substance to measure the change in tension. The test substance was dissolved in dimethyl sulfoxide at a predetermined concentration and added to the high concentration K^+ solution in such a manner that the final concentration came to 10 μM. The trachea cartilage mucous membrane and submucous tissue of a pig trachea were removed to prepare a specimen of tracheal smooth muscles having a major diameter of about 10 mm and a minor diameter of about 1.5 mm. This specimen was suspended in a Magnus tube which was aerated with a mixed gas of 95% of oxygen and 5% of carbon dioxide and contained nutrient solution at 37° C. and a load of 0.8 g was applied to this specimen, and after the tension of the specimen was stabilized, the nutrient solution was replaced with a high concentration K+ solution (72.7 mM) to provoke K+ contraction. The procedure of replacing the solution in the Magnus tube with the nutrient solution to wash the solution and provoking K+ contraction with the high concentration K+ solution was repeated again until the contraction force became constant. When the tension of the K+ contraction became constant, each of the compounds described in Table 19 (the structural formula of the Comparative Example being described in the right side of the compound of the above described Example 180) was added to the high concentration K+ solution as the test substance to measure the change in tension. The test substance was dissolved in dimethyl sulfoxide at a predetermined concentration and added to the high concentration K+ solution in such a manner that the final concentration came to […]. Further, the final concentration of dimethyl sulfoxide added was made 0.3% or less. The change in tension was led to a strain pressure amplifier (“AP-621G3”, manufactured by Nippon Koden Kogyo) through a FD pickup transducer (“TB-611T”, manufactured by Nippon Koden Kogyo) and recorded on a recorder (“R-64V”, manufactured by Rika Electric). When the tension before replacement with the high concentration K+ solution was regarded as 0% and the last tension which was generated by the high concentration K+ solution before the addition of a test substance was regarded as 100%, the contraction force of the tracheal smooth muscle two hours after addition of a test substance was shown as relative percentage. […]

[2] = system: actively sensitized guinea pigs; assay: Inhibition of immediate (IAR) and late (LAR) asthmatic response, specific airway resistance (sRaw); assay type: in vivo, guinea pig; conditions: orally 10 mg/kg one hour before OVA challenge
Experimental: It is reported [Pepys, J. and Hutchcroft, B. J., Bronchial provocation tests in etiologic diagnosis and Analysis of asthma, Am. Rev. Respir. Dis., 112, 829-859 (1975)] that when asthmatic patients are allowed to inhale an antigen, immediate asthmatic response (hereinafter referred to as “IAR”) whose peak is 15 to 30 minutes after inhalation is provoked and recovery from this response is within two hours; however, in 60% of the asthmatic patients late asthmatic response (hereinafter referred to as “LAR”) appears 4 to 12 hours after the inhalation of the antigen. […] On the other hand, it is known that when the guinea pigs actively sensitized with an antigen are allowed to inhale the antigen again, biphasic airway responses are caused. Accordingly, as the animal model line of IAR and LAR which are recognized in the above described asthmatic patients, the asthmatic model using guinea pigs is widely used in the evaluation of drugs for asthma and the like. […]
The specific airway resistance (hereinafter referred to as “sRaw”) was measured, 1 minute, 10 minutes and 30 minutes after challenge and furthermore, 1 hour, 2 hours, 3 hours, 4 hours, 5 hours, 6 hours, 7 hours, 8 hours and 24 hours, each time for the duration of 1 minute with the use of airway resistance measuring equipment (“Pulmos-1”, M.I.P.S., Japan). […]

[3] = system: actively sensitized guinea pigs; assay: Number of inflammatory cells in bronchoalveolar lavage fluid after antigen challenge; assay type: in vivo, guinea pig; conditions: orally 10 mg/kg one hour before OVA challenge
Experimental: It is reported [Pepys, J. and Hutchcroft, B. J., Bronchial provocation tests in etiologic diagnosis and Analysis of asthma, Am. Rev. Respir. Dis., 112, 829-859 (1975)] that when asthmatic patients are allowed to inhale an antigen, immediate asthmatic response (hereinafter referred to as “IAR”) whose peak is 15 to 30 minutes after inhalation is provoked and recovery from this response is within two hours; however, in 60% of the asthmatic patients late asthmatic response (hereinafter referred to as “LAR”) appears 4 to 12 hours after the inhalation of the antigen. […] On the other hand, it is known that when the guinea pigs actively sensitized with an antigen are allowed to inhale the antigen again, biphasic airway responses are caused. Accordingly, as the animal model line of IAR and LAR which are recognized in the above described asthmatic patients, the asthmatic model using guinea pigs is widely used in the evaluation of drugs for asthma and the like. Furthermore, it is known that in the IAR and LAR model of guinea pigs, when actively sensitized guinea pigs are exposed to an antigen, infiltration of inflammatory cells into the airway occurs together with the biphasic airway contraction to cause various inflammatory disorders to airway tissues thereby. Therefore, the number of inflammatory cells in the bronchoalveolar lavage fluid is widely used as the index for the infiltration of inflammatory cells into the airway. Each of the above described actions in the IAR and LAR model of guinea pigs was examined with the compounds of the present invention.
Guinea pigs were allowed to inhale a 1% ovalbumin (“OVA”, sigma-Aldrich Co., U.S.A.) physiological saline for 10 minutes daily continuously for 8 days using of an ultrasonic nebulizer (“NE-U12”, Omron, Japan).
One week after the final sensitization, the guinea pigs were allowed to inhale a 2% “OVA” physiological saline for 5 minutes using of the nebulizer. Twenty-four hours and one hour before challenge, the guinea pigs were dosed with metyrapone (10 mg/kg, Sigma-Aldrich Co., U.S.A.) intravenously, and dosed with pyrilamine (10 mg/kg, Sigma-Aldrich Co., U.S.A.) intraperitoneally 30 minutes before challenge.
Each of the test substances (Compounds of Examples 1 and 4) was formed into a suspension with a 0.5% carboxymethyl cellulose sodium salt (hereinafter referred to as “CMC-Na”) solution at a concentration of 2 mg/mL. One hour before challenge, the guinea pigs were orally dosed with the suspension of the test substance with such a dose so as to be 10 mg/kg. For the control group the medium (a 0.5% CMC-Na solution) was used.
Twenty-three to twenty-four hours after the antigen challenge, the abdominal aorta of the guinea pigs was cut under intraperitoneal anesthesia with “Nembutal” (50 mg/kg) to remove blood and the chest was opened. A tube was inserted in the bronchus and fixed thereto and through this tube, 5 mL (37° C.) of a physiological saline was injected and sucked therethrough; this procedure was repeated twice (10 mL in total) and the recovered fluid was regarded as the bronchoalveolar lavage fluid (hereinafter referred to as “BALF”). BALF was centrifuged at 1,100 rmp at 4° C. for 10 minutes to obtain a precipitate (a pellet). This pellet was suspended in 1 mL of a physiological saline and a Turkliquid was added thereto and the number of leukocytes per μL was counted with a leukocyte counter plate. Centrifugation was repeated under the above described conditions and rabbit serum was added to the obtained pellet to prepare a smear preparation. After drying, the preparation was subjected to the May Grunwald-Giemsa stain. The number of leukocytes was counted by a microscope and the ratio to the total number of cells of neutrophils, eosinophils, macrophages and lymphocytes was obtained and the number of cells per μL was calculated on the basis of this ratio.
The obtained test results were shown by mean values and standard deviations and the student's t-test was carried out. […]

Sprague-Dawley line rats = assay: Toxicity study of two-week repeated-dose oral administration with rats; assay type: in vivo; conditions: male, oral, 0, 125 and 500 mg/kg/day repeatedly for two weeks
Experimental: In order to study the toxicity by repeated-dose administration of compounds, the compounds were dosed orally to Sprague-Dawley line rats (three male rats per group) with 0, 125 and 500 mg/kg/day (a 0.5 w/v % CMC-Na solution) repeatedly for two weeks.

[4] = 24 hours after antigen challenge, average

## CSc1ccc2c(c1)CC(=O)c1c(O)cc(O)cc1S2 [Example 1, 2-Methylthio-7,9-dihydroxy-10,11-dihydrodibenzo[b,f]thiepin-10-one]
[1]
  activity at 10 µM: 0%
[2]
  IAR (% change in sRaw) inhibited by, compared to the control group: 70%
[2]; AUC from 4 hours to 8 hours
  LAR (AUC) inhibited by, compared to the control group: 77%
[3]
  change in number of eosinophils compared to the control group: tendency
  change in number of lymphocytes compared to the control group: tendency
  change in number of neutrophils compared to the control group: tendency
  change in total number of cells compared to the control group: significant decrease
[3]; [4]
  number of cells of eosinophils in bronchoalveolar lavage fluid: 810 µL⁻¹
  number of cells of lymphocytes in bronchoalveolar lavage fluid: 21 µL⁻¹
  number of cells of macrophages in bronchoalveolar lavage fluid: 1,872 /μL
  number of cells of neutrophils in bronchoalveolar lavage fluid: 1,072 /μL
  total number of cells in bronchoalveolar lavage fluid: 3,775 /μL
Sprague-Dawley line rats
  Results (toxicity findings): No abnormalities were recognized

## O=C1Cc2ccc(-c3ccco3)cc2Sc2cc(O)cc(O)c21 [Example 82]
[1]
  activity at 10 µM: 22.4%
other
  melting point: 234.9 to 238.8 °C

## Oc1cc(O)c2c(c1)Sc1ccccc1CC2 [Comparative Example, reference compound]
[1]
  activity at 10 µM: 54.5%
Sprague-Dawley line rats
  Results (toxicity findings): Kidney damage were observed with

## Oc1cc(O)c2c(c1)Oc1cc(-c3cccs3)ccc1CC2 [Example 110]
[1]
  activity at 10 µM: 10.9%
other
  melting point: 194.2 to 195.6 °C

## Oc1cc(O)c2c(c1)Sc1cc(-c3ccco3)ccc1CC2 [Example 124]
[1]
  activity at 10 µM: 30.3%
other
  melting point: 148.5 to 149.6 °C

## O=C1Cc2c(Cl)cccc2Sc2cc(O)cc(O)c21 [Example 17]
[1]
  activity at 10 µM: 0%
other
  melting point: > 200 °C (dec.)

## CC1C(=O)c2cc(O)c(O)cc2Sc2ccccc21 (stereo not shown) [Example 37]
[1]
  activity at 10 µM: 7.5%

## Oc1cc(O)c2c(c1)Sc1cccc(Cl)c1CC2 [Example 27]
[1]
  activity at 10 µM: 1.4%
other
  melting point: 127.3 to 130.7 °C

## Cc1ccc(-c2ccc3c(c2)Oc2cc(O)cc(O)c2C(=O)C3)cc1 [Example 71]
other
  melting point: 208.8 to 210.2 °C

## O=C1Cc2cc(-c3cccc([N+](=O)[O-])c3)ccc2Sc2cc(O)cc(O)c21 [Example 80]
other
  melting point: > 250 °C (dec.)

## Oc1cc(O)c2c(c1)Oc1cc(-c3ccco3)ccc1CC2 [Example 115]
other
  melting point: 198.6 to 201.1 °C

## CCC1C(=O)c2cc(O)c(O)cc2Sc2cc(-c3cccc([N+](=O)[O-])c3)ccc21 (stereo not shown) [Example 175]
other
  melting point: 221.8 to 225 °C

## O=C1Cc2cc(-c3cccs3)ccc2Oc2cc(O)cc(O)c21 [Example 58]
other
  melting point: 199.9 to 201 °C

## CCC1C(=O)c2cc(O)c(O)cc2Sc2ccc(Br)cc21 (stereo not shown) [Example 44]
other
  melting point: 235.6 to 237.4 °C

## O=C1Cc2cc(-c3ccc(O)c(O)c3)ccc2Oc2cc(O)cc(O)c21 [Example 93]
other
  melting point: > 250 °C

## OCCCc1ccc2c(c1)CCc1c(O)cc(O)cc1O2 [Example 103]
other
  melting point: 153.3 to 154.8 °C

Reference: patent publication US6700013B2, “Tricyclic fused heterocycle compounds, process for preparing the same and use thereof” (Nippon Suisan Kaisha, Ltd., priority 1999, dated 2004)
